# Data taken from US20170037125A1, “COMBINATION OF A PD-1 ANTAGONIST AND AN IDO1 INHIBITOR FOR TREATING CANCER” (INCYTE CORPORATION, priority 2014, published 2017).
# Marks after values point to notes of the source that are not given here.
# Legend:
# [1] = test system: selected advanced or metastatic solid tumors; experiment: Phase 1 dose-escalation clinical study of INCB024360 in combination with MK-3475: tumor response (modified RECIST v1.1); type: in vivo, human; conditions: for CR, patients / NE (not evaluable), patients / PD, patients / PR, patients: preliminary
# Protocol: Phase 1 of the study is a dose-escalation phase and Phase 2 is randomized, double-blind, and placebo-controlled. Phase 1 of the study is conducted in subjects with selected advanced or metastatic solid tumors. Phase 2 of the study is conducted in subjects with advanced NSCLC, e.g., Stage IIIB, IV, or recurrent NSCLC. […] The Phase 1 dose-escalation phase includes cohorts of subjects treated with INCB024360 twice daily (BID) at initial doses of 25 mg BID, 50 mg BID, and 100 mg BID in combination with MK-3475 at 2 mg/kg every 3 weeks. One treatment cycle consists of 21 days. A minimum of 3 subjects are enrolled and treated in each cohort, and all 3 subjects are observed for a minimum of 42 days (6 weeks) before the subsequent cohort begins enrollment. […] The study subject cohorts are summarized as follows: For treatment, INCB024360 is self-administered orally BID and continued BID during the 21-day cycle for an every-3-week dose schedule of MK-3475. The MTD of INCB024360 (or PAD) defined during Phase 1 is used for Phase 2. All BID doses are taken morning and evening, approximately 12 hours apart without respect to food. If a dose is missed by more than 4 hours, that dose is skipped and is resumed at the scheduled time. […] Study subject participation averages about 6 months. The Study Schedule and Procedures for the Phase 1/2 study are as follows: […] Liver function test monitoring occurs weekly during the first 6 weeks of study treatment during Phase 1 and then is tested every 3 weeks thereafter and in Phase 2 for subjects who remain on study treatment. Assessment of tumor size (by magnetic resonance imaging or computed tomography scan) is performed at screening or baseline (before beginning therapy), every 9 weeks for 18 months, and then every 12 weeks thereafter until disease progression. Disease progression is defined as progression confirmed by a second, consecutive assessment at least 4 weeks apart with the option for continuing treatment while awaiting radiologic confirmation of progression where feasible, and where subjects are clinically stable, defined as the following: absence of signs and symptoms (including worsening of laboratory values) indicating disease progression, no decline in ECOG performance status, absence of rapid progression of disease, and absence of progressive tumors at critical anatomical sites (e.g., cord compression) requiring urgent alternative medical intervention. […] In accordance with the protocol, INCB024360 was administered in combination with MK-3475. MK-3475 was intravenously administered at a dose of 2 mg/kg as described.
# [2] = Phase 1 dose-escalation clinical study of INCB024360 in combination with MK-3475: adverse events; type: in vivo
# Protocol: This Example describes an ongoing Phase 1/2 clinical study to evaluate the safety, tolerability and efficacy of the inventive combination of MK-3475 and INCB024360 in subjects presenting with various solid tumors and advanced non-small cell lung cancer (NSCLC). Phase 1 of the study is a dose-escalation phase and Phase 2 is randomized, double-blind, and placebo-controlled. Phase 1 of the study is conducted in subjects with selected advanced or metastatic solid tumors. Phase 2 of the study is conducted in subjects with advanced NSCLC, e.g., Stage IIIB, IV, or recurrent NSCLC. The dose-escalation phase (Phase 1) is open-label and is designed to identify the maximum tolerated dose (MTD) or pharmacologically acceptable doses (PAD) of INCB024360 in combination with MK-3475 in subjects with Stage IIIB, IV, or recurrent NSCLC, melanoma, transitional cell carcinoma of the genitourinary (GU) tract, renal cell cancer, triple negative breast cancer, adenocarcinoma of the endometrium or squamous cell carcinoma of the head and neck who have disease progression on at least 1 line of therapy for advanced or metastatic cancer.
# The Phase 1 dose-escalation phase includes cohorts of subjects treated with INCB024360 twice daily (BID) at initial doses of 25 mg BID, 50 mg BID, and 100 mg BID in combination with MK-3475 at 2 mg/kg every 3 weeks. One treatment cycle consists of 21 days. A minimum of 3 subjects are enrolled and treated in each cohort, and all 3 subjects are observed for a minimum of 42 days (6 weeks) before the subsequent cohort begins enrollment. Additional subjects are enrolled in a cohort to achieve the minimum of 3 evaluable subjects if dropouts or dose interruptions or reductions occur that result in a subject being nonevaluable for dose limiting toxicities (DLTs). When the MTD or PAD is reached, additional subjects are enrolled for a total of 9 subjects, but the additional subjects are treated with MK-3475 at 200 mg every 3 weeks and the MTD or PAD of INCB024360 to further evaluate safety and confirm it as the recommended Phase 2 dose (RP2D). The study subject cohorts are summarized as follows:
# For treatment, INCB024360 is self-administered orally BID and continued BID during the 21-day cycle for an every-3-week dose schedule of MK-3475. The MTD of INCB024360 (or PAD) defined during Phase 1 is used for Phase 2. All BID doses are taken morning and evening, approximately 12 hours apart without respect to food. If a dose is missed by more than 4 hours, that dose is skipped and is resumed at the scheduled time. MK-3475 is administered at 2 mg/kg or 200 mg intravenously (IV) over a 30-minute period on Day 1 of an every-3-week cycle, with no intrasubject dose escalation. Study subject participation averages about 6 months.
# Primary endpoints of the Phase 1 study are as follows: Safety and tolerability are assessed by monitoring frequency, duration and severity of AEs, through physical examinations, by evaluating changes in vital signs and electrocardiograms, and through clinical laboratory blood and urine sample evaluations. Primary endpoints of the Phase 2 study are as follows: Progression-free survival, defined as the time from randomization until the earliest date of disease progression, as determined by investigator assessment of objective radiographic disease assessments per modified RECIST v1.1, or death due to any cause, if occurring sooner than progression. Imaging is archived for possible retrospective central confirmation of disease progression and response.
# Table 4 below presents preliminary data of adverse events (AEs), including immune-related AEs, reported in the described study.
# [3] = target: human indoleamine 2,3-dioxygenasae (IDO) (Homo sapiens, UniProt P14902); conditions: human IDO enzyme assay; see U.S. Pat. No. 8,088,803; cited from earlier work
# Chain of human indoleamine 2,3-dioxygenasae (IDO) (P14902 whole entry): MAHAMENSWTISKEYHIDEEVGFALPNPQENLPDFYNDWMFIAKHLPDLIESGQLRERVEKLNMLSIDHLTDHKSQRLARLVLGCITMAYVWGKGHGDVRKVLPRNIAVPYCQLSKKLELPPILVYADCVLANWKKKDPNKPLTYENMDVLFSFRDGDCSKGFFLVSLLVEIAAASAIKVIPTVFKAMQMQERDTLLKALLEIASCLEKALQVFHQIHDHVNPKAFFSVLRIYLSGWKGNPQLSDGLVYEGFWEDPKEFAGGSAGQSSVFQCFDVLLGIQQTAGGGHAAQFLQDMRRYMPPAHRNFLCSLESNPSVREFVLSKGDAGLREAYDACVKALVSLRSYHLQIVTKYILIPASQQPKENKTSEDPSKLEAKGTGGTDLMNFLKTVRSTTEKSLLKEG
# [4] = INCB024360 25 mg BID (n = 4) with MK-3475 2 mg/kg IV
# [5] = INCB024360 50 mg BID (n = 4) with MK-3475 2 mg/kg IV
# [6] = subjects evaluable for response, both cohorts, with MK-3475
# [7] = Grade 3 or 4, 25 mg BID (n = 4)
# [8] = Grade 3 or 4, 50 mg BID (n = 8)
structure (smiles),measurement,setting,value
"NS(=O)(=O)NCCNc1nonc1C(=NO)Nc1ccc(F)c(Br)c1 [Compound 1, 4-({2-[(aminosulfonyl)amino]ethyl}amino)-N-(3-bromo-4-fluorophenyl)-N′-hydroxy-1,2,5-oxadiazole-3-carboximidamide]",response of a subject having melanoma (MEL),"[1]; 25 mg BID Cohort, stable, with MK-3475 2 mg/kg IV",stable disease (SD)
same,response of a subject having transitional cell carcinoma (TCC) in bladder,"[1]; 25 mg BID Cohort, with MK-3475 2 mg/kg IV",partial response (PR)
same,response of a subject with melanoma (MEL),"[1]; 50 mg BID Cohort, first melanoma subject, with MK-3475 2 mg/kg IV",complete response (CR)
same,response of a subject with melanoma (MEL),"[1]; 50 mg BID cohort, further melanoma subject, with MK-3475 2 mg/kg IV",partial response (PR)
same,total best overall response (per modified RECIST v1.1),"[1]; 25 and 50 mg BID cohorts pooled, only subjects evaluable for response (5/7), with MK-3475",71%
same,disease control rate,"[1]; 25 and 50 mg BID cohorts pooled, only subjects evaluable for response (7/7), with MK-3475",100%
same,"CR, patients",[1]; [4],0 n (%)
same,"NE (not evaluable), patients",[1]; [4],0 n (%)
same,"PD, patients",[1]; [4],0 n (%)
same,"PR, patients",[1]; [4],2 (50%) n (%)
same,"CR, patients",[1]; [5],1 (33%) n (%)
same,"NE (not evaluable), patients",[1]; [5],1** n (%)
same,"PD, patients",[1]; [5],0 n (%)
same,"PR, patients",[1]; [5],2 (67%) n (%)
same,Disease Control Rate (DCR),[1]; [6],7/7
same,Objective response rate (ORR),[1]; [6],4/7
same,Grade 3 rash related to dose limiting toxicity (DLT),[2]; 50 mg BID cohort,one
same,Cough (AE),"[2]; All Grades, 25 mg BID (n = 4)",2 n (%)
same,"DVT (IJ) (AE; Deep Vein Thrombosis, Internal Jugular)","[2]; All Grades, 25 mg BID (n = 4)",1 n (%)
same,Diarrhea (AE),"[2]; All Grades, 25 mg BID (n = 4)",2 n (%)
same,Dyspnea (AE),"[2]; All Grades, 25 mg BID (n = 4)",1 n (%)
same,Fall (AE),"[2]; All Grades, 25 mg BID (n = 4)",0 n (%)
same,Fatigue (AE),"[2]; All Grades, 25 mg BID (n = 4)",0 n (%)
same,Headache (AE),"[2]; All Grades, 25 mg BID (n = 4)",1 n (%)
same,Mild Infusion Reaction (AE),"[2]; All Grades, 25 mg BID (n = 4)",0 n (%)
same,Nausea (AE),"[2]; All Grades, 25 mg BID (n = 4)",2 n (%)
same,Pruritis (AE),"[2]; All Grades, 25 mg BID (n = 4)",1 n (%)
same,Rash (AE),"[2]; All Grades, 25 mg BID (n = 4)",0 n (%)
same,Cough (AE),"[2]; All Grades, 50 mg BID (n = 8)",0 n (%)
same,"DVT (IJ) (AE; Deep Vein Thrombosis, Internal Jugular)","[2]; All Grades, 50 mg BID (n = 8)",0 n (%)
same,Diarrhea (AE),"[2]; All Grades, 50 mg BID (n = 8)",0 n (%)
same,Dyspnea (AE),"[2]; All Grades, 50 mg BID (n = 8)",0 n (%)
same,Fall (AE),"[2]; All Grades, 50 mg BID (n = 8)",1 n (%)
same,Fatigue (AE),"[2]; All Grades, 50 mg BID (n = 8)",1 n (%)
same,Headache (AE),"[2]; All Grades, 50 mg BID (n = 8)",0 n (%)
same,Mild Infusion Reaction (AE),"[2]; All Grades, 50 mg BID (n = 8)",1 n (%)
same,Nausea (AE),"[2]; All Grades, 50 mg BID (n = 8)",1 n (%)
same,Pruritis (AE),"[2]; All Grades, 50 mg BID (n = 8)",0 n (%)
same,Rash (AE),"[2]; All Grades, 50 mg BID (n = 8)",2 n (%)
same,Cough (AE),"[2]; All Grades, Total (N = 12)",2 n (%)
same,"DVT (IJ) (AE; Deep Vein Thrombosis, Internal Jugular)","[2]; All Grades, Total (N = 12)",1 n (%)
same,Diarrhea (AE),"[2]; All Grades, Total (N = 12)",2 n (%)
same,Dyspnea (AE),"[2]; All Grades, Total (N = 12)",1 n (%)
same,Fall (AE),"[2]; All Grades, Total (N = 12)",1 n (%)
same,Fatigue (AE),"[2]; All Grades, Total (N = 12)",1 n (%)
same,Headache (AE),"[2]; All Grades, Total (N = 12)",1 n (%)
same,Mild Infusion Reaction (AE),"[2]; All Grades, Total (N = 12)",1 n (%)
same,Nausea (AE),"[2]; All Grades, Total (N = 12)",3 n (%)
same,Pruritis (AE),"[2]; All Grades, Total (N = 12)",1 n (%)
same,Rash (AE),"[2]; All Grades, Total (N = 12)",2 n (%)
same,Cough (AE),[2]; [7],0 n (%)
same,"DVT (IJ) (AE; Deep Vein Thrombosis, Internal Jugular)",[2]; [7],0 n (%)
same,Dyspnea (AE),[2]; [7],0 n (%)
same,Fall (AE),[2]; [7],0 n (%)
same,Fatigue (AE),[2]; [7],0 n (%)
same,Headache (AE),[2]; [7],0 n (%)
same,Mild Infusion Reaction (AE),[2]; [7],0 n (%)
same,Nausea (AE),[2]; [7],0 n (%)
same,Pruritis (AE),[2]; [7],0 n (%)
same,Rash (AE),[2]; [7],0 n (%)
same,Cough (AE),[2]; [8],0 n (%)
same,"DVT (IJ) (AE; Deep Vein Thrombosis, Internal Jugular)",[2]; [8],0 n (%)
same,Dyspnea (AE),[2]; [8],0 n (%)
same,Fatigue (AE),[2]; [8],0 n (%)
same,Headache (AE),[2]; [8],0 n (%)
same,Mild Infusion Reaction (AE),[2]; [8],0 n (%)
same,Nausea (AE),[2]; [8],0 n (%)
same,Pruritis (AE),[2]; [8],0 n (%)
same,Rash (AE),[2]; [8],1 n (%)
same,Fall (AE),"[2]; Grade 3 or 4, 50 mg BID (n = 8), not related to study treatment",1 n (%)
same,Cough (AE),"[2]; Grade 3 or 4, Total (N = 12)",0 n (%)
same,"DVT (IJ) (AE; Deep Vein Thrombosis, Internal Jugular)","[2]; Grade 3 or 4, Total (N = 12)",0 n (%)
same,Dyspnea (AE),"[2]; Grade 3 or 4, Total (N = 12)",0 n (%)
same,Fall (AE),"[2]; Grade 3 or 4, Total (N = 12)",1 n (%)
same,Fatigue (AE),"[2]; Grade 3 or 4, Total (N = 12)",0 n (%)
same,Headache (AE),"[2]; Grade 3 or 4, Total (N = 12)",0 n (%)
same,Mild Infusion Reaction (AE),"[2]; Grade 3 or 4, Total (N = 12)",0 n (%)
same,Nausea (AE),"[2]; Grade 3 or 4, Total (N = 12)",0 n (%)
same,Pruritis (AE),"[2]; Grade 3 or 4, Total (N = 12)",0 n (%)
same,Rash (AE),"[2]; Grade 3 or 4, Total (N = 12)",1 n (%)
"NS(=O)(=O)NCCNc1nonc1C(=NO)Nc1ccc(F)c(C(F)(F)F)c1 [Compound 3, 4-({2-[(aminosulfonyl)amino]ethyl}amino)-N-[4-fluoro-3-(trifluoromethyl)phenyl]-N′-hydroxy-1,2,5-oxadiazole-3-carboximidamide]",IC50,[3],< 100 nM
